In patent publication US11548903B2, “Bicyclic thiazine and oxazine derivatives as beta-secretase inhibitors and methods of use” (AMGEN INC., priority 2016, dated 2023):

Key:
[1] = target: human recombinant BACE1 (Homo sapiens (Human), UniProt P56817); assay: In vitro enzymatic BACE1 FRET assay; format: biochemical; settings: read-out: BACE1 Enzyme IC50
Method: (§1) In Vitro Enzymatic BACE1 and BACE2 FRET (Fluorescence Resonance Energy Transfer) Assays […] These recombinant proteins were further purified using Ni-NTA affinity chromatography (Qiagen). […] The assay was effectively started by the addition of FRET substrate (50 nM) and the combination was incubated for one hour. The FRET assay was terminated by the addition of tris buffer, which raised the pH to neutrality, and the fluorescence was determined. The FRET substrate was a peptide with commercially available fluorophore and quencher, on opposite sides of the BACE cleavage site. The specific FRET substrate used in this assay was made by Amgen in-house. Commercially available FRET substrates, for example, the FRET substrate offered with the BACE1 FRET Assay Kit sold by ThermoFisher Scientific (Catalog Number P2985), may be used in this assay with the appropriate modifications, which are within the purview of the ability of a person with ordinary skill in the art. Proteolytic cleavage of the FRET substrate released quenching of fluorescence (excitation 488 nm and emission 590 nm).

[2] = target: Recombinant CatD (Homo sapiens (Human), UniProt P07339); assay: In vitro enzymatic Cathepsin D (CatD) FRET assay; format: biochemical; settings: read-out: Cat D Enzyme IC50
Chain of Recombinant CatD (P07339 65-412): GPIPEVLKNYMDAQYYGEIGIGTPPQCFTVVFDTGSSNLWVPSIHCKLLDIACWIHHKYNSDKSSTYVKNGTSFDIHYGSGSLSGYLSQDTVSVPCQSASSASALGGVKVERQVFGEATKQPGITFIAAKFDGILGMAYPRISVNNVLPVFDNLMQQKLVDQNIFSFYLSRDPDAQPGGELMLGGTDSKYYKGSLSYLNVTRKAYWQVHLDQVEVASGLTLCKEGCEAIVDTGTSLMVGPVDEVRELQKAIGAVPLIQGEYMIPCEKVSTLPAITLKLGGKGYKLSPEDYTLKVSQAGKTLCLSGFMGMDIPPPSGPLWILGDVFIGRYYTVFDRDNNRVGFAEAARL
Method: In Vitro Enzymatic Cathepsin D (CatD) FRET Assay Recombinant CatD was expressed in CHO cells. The assay buffer for CatD was 0.05 M citrate pH 3.5, 10% DMSO final, 5 mM CHAPS. […] The assays was effectively started by the addition of different FRET substrates (20 nM for CatD) and the combination was incubated for one hour. The FRET assay was terminated with by addition of tris buffer, which raises the pH to neutrality, and the fluorescence was determined. The FRET substrate was a peptide with commercially available fluorophore and quencher, on opposite sides of the CatD cleavage site. The CatD substrate peptide sequence was based on sequence #1 of Table 1 from Gulnik et al., FEBS Lett. 413(2):379-384 (1997). Proteolytic cleavage of the FRET substrate released quenching of fluorescence (CatD excitation 500 nm and emission 580 nm). The in vitro CatD FRET assay data for each of the Examples is provided in Table 2, conducted by the first procedure described above. […] Thus, with this surprising selectivity profile, the compounds provided herein are believed to minimize, reduce or completely eliminate any risk of retinal atrophy and abnormal development of the eye and of the retinal pigmented epithelium as it relates to the normal function and activity of CatD.

[3] = target: human recombinant BACE2 (Homo sapiens (Human), UniProt Q9Y5Z0); assay: In vitro enzymatic BACE2 FRET assay; format: biochemical; settings: read-out: BACE2 Enzyme IC50
Chain of human recombinant BACE2 (Q9Y5Z0 63-518): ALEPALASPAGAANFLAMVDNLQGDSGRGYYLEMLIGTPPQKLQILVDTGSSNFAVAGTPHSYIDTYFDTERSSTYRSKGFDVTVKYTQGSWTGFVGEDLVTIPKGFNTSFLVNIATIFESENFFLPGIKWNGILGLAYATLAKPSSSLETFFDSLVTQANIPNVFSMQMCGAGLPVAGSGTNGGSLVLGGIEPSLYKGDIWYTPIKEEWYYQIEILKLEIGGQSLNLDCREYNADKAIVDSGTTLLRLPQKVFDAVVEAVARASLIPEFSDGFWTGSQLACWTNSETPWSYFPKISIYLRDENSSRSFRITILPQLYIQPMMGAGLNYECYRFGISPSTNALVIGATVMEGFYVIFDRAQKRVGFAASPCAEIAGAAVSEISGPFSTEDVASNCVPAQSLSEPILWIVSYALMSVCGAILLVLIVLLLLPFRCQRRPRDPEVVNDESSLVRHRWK
Method: as §1

[4] = system: BACE1 (Aβ40 from cells stably expressing Amyloid Precursor Protein); assay: In vitro BACE1 cell-based assay (Aβ40 in conditioned medium, HTRF); settings: Aβ40, 24 h incubation; read-out: BACE1 Cell IC50
Method: In Vitro BACE1 Cell-Based Assay The cell-based assay measures inhibition or reduction of Aβ40 in conditioned medium of test compound treated cells expressing amyloid precursor protein. Cells stably expressing Amyloid Precursor Protein (APP) were plated at a density of 45K cells/well in 384 well plates (Corning/BioCoat 354663). The test compounds were then added to cells in 22-point dose response concentrations with the starting concentration being 62.5 μM. The compounds were diluted from stock solutions in DMSO and the final DMSO concentration of the test compounds on cells was 0.625%. The cells were cultivated overnight at 37° C. and 5% CO2 in DMEM supplemented with 10% FBS. After 24 h of incubation with the test compounds, the conditioned media was collected and the Aβ40 levels were determined using HTRF (Homogeneous Time Resolved Fluorescence). […] The HTRF to detect Aβ40 was performed in 384 well plates (Costar 3658). The antibody pair that were used to detect Aβ 40 from cell supernatants were ConfAb40 antibody (Amgen in-house) and biotinylated 6E10 (BIOLEGEND). As an alternative to ConfAb40, a commercially available antibody, Anti-beta Amyloid 1-40 antibody [BDI350] from Abcam, Cambridge, Mass. 02139-1517 (Product code: ab20068), may be used in this assay. […] The conditioned media was incubated with above antibodies and Streptavidin Allophycocyanin Conjugate for 30-60 minutes at 23° C. The final readout was performed on Envision from PerkinElmer.

Chain of human recombinant BACE1 (P56817 46-501): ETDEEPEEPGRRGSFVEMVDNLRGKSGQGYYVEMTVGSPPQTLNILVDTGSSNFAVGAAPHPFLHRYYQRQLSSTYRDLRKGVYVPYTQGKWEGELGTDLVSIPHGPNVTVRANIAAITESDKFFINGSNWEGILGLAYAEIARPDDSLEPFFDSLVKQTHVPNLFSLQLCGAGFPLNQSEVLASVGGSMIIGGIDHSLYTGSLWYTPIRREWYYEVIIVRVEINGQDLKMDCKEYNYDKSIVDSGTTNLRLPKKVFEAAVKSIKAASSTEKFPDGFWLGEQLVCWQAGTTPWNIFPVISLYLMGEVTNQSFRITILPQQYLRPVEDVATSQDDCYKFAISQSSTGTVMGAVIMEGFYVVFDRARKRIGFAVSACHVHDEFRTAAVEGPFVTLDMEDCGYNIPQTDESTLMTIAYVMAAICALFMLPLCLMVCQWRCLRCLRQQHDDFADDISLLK

| IC50 [1] | IC50 [2] | IC50 [3] | IC50 [4] | Compound |
| --- | --- | --- | --- | --- |
| 108 nM | > 44400 nM | 2220 nM | 15.1 nM | NC1=N[C@@]2(c3cc(/C=C(\F)c4ccc(OC(F)(F)F)cn4)ccc3F)CO[C@H](C(F)(F)F)[C@H]2CS1 [Example 129, (4aS,5S,7aS)-7a-(2-fluoro-5-((Z)-2-fluoro-2-(5-(trifluoromethoxy)pyridin-2-yl)vinyl)phenyl)-5-(trifluoromethyl)-4a,5,7,7a-tetrahydro-4H-furo[3,4-d][1,3]thiazin-2-amine] |
| 0.405 nM | 25800 nM | 1.78 nM | 0.906 nM | COc1nc(N2C[C@H]3CSC(N)=N[C@@]3(c3cc(/C=C(\F)c4ccc(C#N)cn4)ccc3F)C2)nc(C)c1F [Example 130, 6-((Z)-2-(3-((4aR,7aS)-2-amino-6-(5-fluoro-4-methoxy-6-methylpyrimidin-2-yl)-4,4a,5,6,7,7a-hexahydropyrrolo[3,4-d][1,3]thiazin-7a-yl)-4-fluorophenyl)-1-fluorovinyl)nicotinonitrile] |
| 3.83 nM | > 400000 nM | 427 nM | 11.4 nM | N#Cc1ccc(/C(F)=C/c2ccc(F)c([C@]34CO[C@H](CF)[C@H]3CSC(N)=N4)c2)nc1 [Example 131, 6-((Z)-2-(3-((4aS,5S,7aS)-2-amino-5-(fluoromethyl)-4a,5,7,7a-tetrahydro-4H-furo[3,4-d][1,3]thiazin-7a-yl)-4-fluorophenyl)-1-fluorovinyl)nicotinonitrile] |
| 426 nM | > 400000 nM | 427 nM | 112 nM | NC1=N[C@@]2(c3cc(/C=C(\F)c4ccc(F)cn4)ccc3F)CO[C@H](C(F)(F)F)[C@H]2CS1 [Example 132, (4aS,5S,7aS)-7a-(2-fluoro-5-((Z)-2-fluoro-2-(5-fluoropyridin-2-yl)vinyl)phenyl)-5-(trifluoromethyl)-4a,5,7,7a-tetrahydro-4H-furo[3,4-d][1,3]thiazin-2-amine] |
| 1220 nM | 139000 nM | 28000 nM | 2000 nM | N#Cc1ccc(/C(F)=C/c2ccc(F)c([C@@]34CO[C@@H](CF)[C@@H]3CSC(N)=N4)c2)nc1 [Example 133, 6-((Z)-2-(3-((4aR,5R,7aR)-2-amino-5-(fluoromethyl)-4a,5,7,7a-tetrahydro-4H-furo[3,4-d][1,3]thiazin-7a-yl)-4-fluorophenyl)-1-fluorovinyl)nicotinonitrile] |
| 1.4 nM | 59300 nM | 4.3 nM | 0.9 nM | COc1nc(N2C[C@H]3CSC(N)=N[C@@]3(c3cc(/C=C(\F)c4ccc(C#N)cn4)ccc3F)C2)ncc1F [Example 134, 6-((Z)-2-(3-((4aR,7aS)-2-amino-6-(5-fluoro-4-methoxypyrimidin-2-yl)-4,4a,5,6,7,7a-hexahydropyrrolo[3,4-d][1,3]thiazin-7a-yl)-4-fluorophenyl)-1-fluorovinyl)nicotinonitrile] |
| 4.3 nM | 106000 nM | 22.3 nM | 1.8 nM | N#Cc1ccc(/C(F)=C/c2ccc(F)c([C@]34CN(c5ncccn5)C[C@H]3CSC(N)=N4)c2)nc1 [Example 135, 6-((Z)-2-(3-((4aR,7aS)-2-amino-6-(pyrimidin-2-yl)-4,4a,5,6,7,7a-hexahydropyrrolo[3,4-d][1,3]thiazin-7a-yl)-4-fluorophenyl)-1-fluorovinyl)nicotinonitrile] |
| 622 nM | > 400000 nM | 6630 nM | 2030 nM | COc1cnc(/C(F)=C/c2ccc(F)c([C@]34CO[C@H](C(F)(F)F)[C@H]3CSC(N)=N4)c2)cn1 [Example 136, (4aS,5S,7aS)-7a-(2-fluoro-5-((Z)-2-fluoro-2-(5-methoxypyrazin-2-yl)vinyl)phenyl)-5-(trifluoromethyl)-4a,5,7,7a-tetrahydro-4H-furo[3,4-d][1,3]thiazin-2-amine] |
| 15 nM | 382000 nM | 605 nM | 200 nM | NC1=N[C@@]2(c3cc(/C=C(\F)c4ncc(C(F)(F)F)cc4Cl)ccc3F)CO[C@H](C(F)(F)F)[C@H]2CS1 [Example 137, (4aS,5S,7aS)-7a-(5-((Z)-2-(3-chloro-5-(trifluoromethyl)pyridin-2-yl)-2-fluorovinyl)-2-fluorophenyl)-5-(trifluoromethyl)-4a,5,7,7a-tetrahydro-4H-furo[3,4-d][1,3]thiazin-2-amine] |
| 27.2 nM | > 400000 nM | 1140 nM | 116 nM | Cc1cc(C#N)cnc1/C(F)=C/c1ccc(F)c([C@]23CO[C@H](C(F)(F)F)[C@H]2CSC(N)=N3)c1 [Example 138, 6-((Z)-2-(3-((4aS,5S,7aS)-2-amino-5-(trifluoromethyl)-4a,5,7,7a-tetrahydro-4H-furo[3,4-d][1,3]thiazin-7a-yl)-4-fluorophenyl)-1-fluorovinyl)-5-methylnicotinonitrile] |
| 15.8 nM | > 400000 nM | 1500 nM | 117 nM | NC1=N[C@@]2(c3cc(/C=C(\F)c4ccc(C(F)(F)F)cn4)ccc3F)CO[C@H](C(F)(F)F)[C@H]2CS1 [Example 139, (4aS,5S,7aS)-7a-(2-fluoro-5-((Z)-2-fluoro-2-(5-(trifluoromethyl)pyridin-2-yl)vinyl)phenyl)-5-(trifluoromethyl)-4a,5,7,7a-tetrahydro-4H-furo[3,4-d][1,3]thiazin-2-amine] |
| 8.7 nM | 333000 nM | 220 nM | 48.2 nM | N#Cc1cnc(/C(F)=C/c2ccc(F)c([C@]34CO[C@H](C(F)(F)F)[C@H]3CSC(N)=N4)c2)c(Cl)c1 [Example 140, 6-((Z)-2-(3-((4aS,5S,7aS)-2-amino-5-(trifluoromethyl)-4a,5,7,7a-tetrahydro-4H-furo[3,4-d][1,3]thiazin-7a-yl)-4-fluorophenyl)-1-fluorovinyl)-5-chloronicotinonitrile] |
| 21.6 nM | > 400000 nM | 741 nM | 18.1 nM | N#Cc1ccc(/C(F)=C/c2ccc(F)c([C@]34CO[C@H](C(F)F)[C@H]3CSC(N)=N4)c2)nc1 [Example 144, 6-((Z)-2-(3-((4aS,5S,7aS)-2-amino-5-(difluoromethyl)-4a,5,7,7a-tetrahydro-4H-furo[3,4-d][1,3]thiazin-7a-yl)-4-fluorophenyl)-1-fluorovinyl)nicotinonitrile] |
| 48.5 nM | > 400000 nM | 1400 nM | 41 nM | N#Cc1ccc(/C(F)=C/c2ccc(F)c([C@@]34CO[C@@H](C(F)F)[C@@H]3CSC(N)=N4)c2)nc1 [Example 145, 6-((Z)-2-(3-((4aR,5R,7aR)-2-Amino-5-(difluoromethyl)-4a,5-dihydro-4H-furo[3,4-d][1,3]thiazin-7a(7H)-yl)-4-fluorophenyl)-1-fluorovinyl)nicotinonitrile] |
